Experimental data reported in patent publication US20130029962A1, “Substituted Heteroaromatic Pyrazole-Containing Carboxamide and Urea Compounds as Vanilloid Receptor Ligands” (Gruenenthal GmbH, priority 2011, published 2013).

Biological target: T1, vanilloid receptor 1 (VR1/TRPV1 receptor) (Homo sapiens, UniProt Q8NER1)
T1 construct: expressed in transfected cells; host or cells: CHO K1
Assay: Functional testing on the vanilloid receptor 1 (VR1/TRPV1): FLIPR Ca2+ influx assay, displacement of capsaicin
Assay type: cell-based, human being
Set-up: key to mode of action at VR1/TRPV1 (AG, pAG, NE), Cap: AG=agonist; NE=no effect; pAG=partial agonist
Conditions: 5 μM compound; capsaicin (Cap); human being; read-out: inhibition (as a percentage) at the concentration after @, Cap
Method: Furthermore, preference may be given to compounds according to the invention that cause a 50 percent displacement of capsaicin, which is present at a concentration of 100 nM, in a FLIPR assay with CHO K1 cells which were transfected with the human VR1 gene at a concentration of less than 2,000 nM, preferably less than 1,000 nM, particularly preferably less than 300 nM, most particularly preferably less than 100 nM, even more preferably less than 75 nM, additionally preferably less than 50 nM, most preferably less than 10 nM.
In the process, the Ca^2+ influx is quantified in the FLIPR assay with the aid of a Ca^2+-sensitive dye (type Fluo-4, Molecular Probes Europe BV, Leiden, the Netherlands) in a fluorescent imaging plate reader (FLIPR, Molecular Devices, Sunnyvale, USA), as described hereinafter. […]
The number of cells in the suspension is set to 3×10^5 per mL and 150 μL of this suspension are in each case introduced into a recess in the cell culture plates coated as described hereinbefore. In the incubator the plates are left for two to three days at 37° C., 5% by volume of CO2 and 95% relative humidity. Subsequently, the cells are loaded with 2 μM of Fluo-4 and 0.01% by volume of Pluronic F127 (Molecular Probes Europe BV, Leiden, the Netherlands) in HBSS buffer (Hank's buffered saline solution, Gibco Invitrogen GmbH, Karlsruhe, Germany) for 30 min at 37° C., washed 3 times with HBSS buffer and after further incubation for 15 minutes at room temperature used for Ca^2+ measurement in a FLIPR assay. The Ca^2+-dependent fluorescence is in this case measured before and after the addition of substances (λex=488 nm, λem=540 nm). Quantification is carried out by measuring the highest fluorescence intensity (FC, fluorescence counts) over time.
The FLIPR protocol consists of 2 substance additions. First the compounds to be tested (10 μM) are pipetted onto the cells and the Ca^2+ influx is compared with the control (capsaicin 10 μM). This provides the result in % activation based on the Ca^2+ signal after the addition of 10 μM of capsaicin (CP). After 5 minutes' incubation, 100 nM of capsaicin are applied and the Ca^2+ influx is also determined. Desensitising agonists and antagonists lead to suppression of the Ca^2+ influx. The % inhibition is calculated compared to the maximum achievable inhibition with 10 μM of capsazepine. Triple analyses (n=3) are carried out and repeated in at least 3 independent experiments (N=4).
Starting from the percentage displacement caused by different concentrations of the compounds to be tested of general formula I, IC50 inhibitory concentrations which cause a 50-percent displacement of capsaicin were calculated. Ki values for the test substances were obtained by conversion by means of the Cheng-Prusoff equation (Cheng, Prusoff; Biochem. Pharmacol. 22, 3099-3108, 1973).
The affinity of the compounds according to the invention for the vanilloid receptor 1 (VR1/TRPV1 receptor) was determined as described above (pharmacological method I).

T1 sequence (Q8NER1 whole entry): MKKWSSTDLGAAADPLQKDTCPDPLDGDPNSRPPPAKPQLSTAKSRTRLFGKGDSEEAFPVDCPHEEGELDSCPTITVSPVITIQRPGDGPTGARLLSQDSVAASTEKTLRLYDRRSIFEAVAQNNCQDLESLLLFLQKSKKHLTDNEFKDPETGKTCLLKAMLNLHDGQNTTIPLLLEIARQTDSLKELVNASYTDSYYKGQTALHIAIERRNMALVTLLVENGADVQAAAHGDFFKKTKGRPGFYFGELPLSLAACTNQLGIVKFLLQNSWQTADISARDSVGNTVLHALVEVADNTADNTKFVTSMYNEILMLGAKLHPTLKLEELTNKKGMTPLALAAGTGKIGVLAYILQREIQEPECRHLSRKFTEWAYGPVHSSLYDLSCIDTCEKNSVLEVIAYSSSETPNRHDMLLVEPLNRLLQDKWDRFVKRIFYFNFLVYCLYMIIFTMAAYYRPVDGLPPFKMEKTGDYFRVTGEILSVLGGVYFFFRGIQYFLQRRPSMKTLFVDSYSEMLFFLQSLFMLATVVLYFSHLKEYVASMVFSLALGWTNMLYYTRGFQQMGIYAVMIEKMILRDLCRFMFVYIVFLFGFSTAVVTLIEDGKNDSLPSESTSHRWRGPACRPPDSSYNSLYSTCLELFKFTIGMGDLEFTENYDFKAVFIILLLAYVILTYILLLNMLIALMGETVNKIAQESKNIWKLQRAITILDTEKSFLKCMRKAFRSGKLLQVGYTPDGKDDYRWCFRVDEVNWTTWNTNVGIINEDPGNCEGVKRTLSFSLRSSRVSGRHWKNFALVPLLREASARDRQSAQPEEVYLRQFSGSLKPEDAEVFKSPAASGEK

| SMILES | inhibition at 5 µM |
| --- | --- |
| O=C(Cc1ccncc1)NCc1cc(C(F)(F)F)nn1-c1cccc(Cl)c1 [Example 11, N-((1-(3-chlorophenyl)-3-(trifluoromethyl)-1H-pyrazol-5-yl)methyl)-2-(pyridin-4-yl)acetamide] | 79% |
| O=C(NCc1cc(C(F)(F)F)nn1-c1cccc(Cl)c1)Nc1cccnc1 [Example 9, 1-((1-(3-chlorophenyl)-3-(trifluoromethyl)-1H-pyrazol-5-yl)methyl)-3-(pyridin-3-yl)urea] | 72% |
| COc1ncc(NC(=O)NCc2cc(C(F)(F)F)nn2-c2cccc(Cl)c2)cn1 [Example 130, 1-((1-(3-chlorophenyl)-3-(trifluoromethyl)-1H-pyrazol-5-yl)methyl)-3-(2-methoxypyrimidin-5-yl)urea] | 47% |
| CC(C(=O)NCc1cc(C(F)(F)F)nn1-c1cccc(Cl)c1)c1cnc(C(=O)Nc2ccccc2)nc1 (stereo not drawn) [Example 62, 5-(1-((1-(3-chlorophenyl)-3-(trifluoromethyl)-1H-pyrazol-5-yl)methylamino)-1-oxopropan-2-yl)-N-phenylpyrimidine-2-carboxamide] | 53% |
| CC(C)(C)c1cc(CNC(=O)Cc2cccnc2)n(-c2cccc(Cl)c2)n1 [Example 6, N-((3-tert-butyl-1-(3-chlorophenyl)-1H-pyrazol-5-yl)methyl)-2-(pyridin-3-yl)acetamide] | 89% |

Same assay, conditions: capsaicin (Cap) as stimulus; Ki from IC50 by Cheng-Prusoff; read-out: (f) Ki (human being) [nM] Cap

| SMILES | Ki |
| --- | --- |
| COc1ccc(C(C)C(=O)NCc2cc(C(F)(F)F)nn2-c2cccc(Cl)c2)cn1 (stereo not drawn) [Example 129, N-((1-(3-chlorophenyl)-3-(trifluoromethyl)-1H-pyrazol-5-yl)methyl)-2-(6-methoxypyridin-3-yl)propanamide] | 13 nM |
| CC(C)(C)c1cc(CNC(=O)Nc2ccccn2)n(-c2cccc(Cl)c2)n1 [Example 4, 1-((3-tert-butyl-1-(3-chlorophenyl)-1H-pyrazol-5-yl)methyl)-3-(pyridin-2-yl)urea] | 47 nM |
| O=C(NCc1cc(C(F)(F)F)nn1-c1cccc(Cl)c1)Nc1ccc(N2CCC2)nc1 [Example 109, 1-(6-(azetidin-1-yl)pyridin-3-yl)-3-((1-(3-chlorophenyl)-3-(trifluoromethyl)-1H-pyrazol-5-yl)methyl)urea] | 46 nM |
| O=C(NCc1cc(C(F)(F)F)nn1-c1cccc(Cl)c1)Nc1ccc(CO)nc1 [Example 32, 1-((1-(3-chlorophenyl)-3-(trifluoromethyl)-1H-pyrazol-5-yl)methyl)-3-(6-(hydroxymethyl)pyridin-3-yl)urea] | 32 nM |
| CC(C)(C)c1cc(CNC(=O)Nc2ccc(N3CCCC3)nc2)n(-c2cccc(Cl)c2)n1 [Example 120, 1-((3-tert-butyl-1-(3-chlorophenyl)-1H-pyrazol-5-yl)methyl)-3-(6-(pyrrolidin-1-yl)pyridin-3-yl)urea] | 23 nM |
| Cc1cccc(-n2nc(C(F)(F)F)cc2CNC(=O)C(C)c2ccc(CCO)nc2)c1 (stereo not drawn) [Example 151, 2-(6-(2-hydroxyethyl)pyridin-3-yl)-N-((1-m-tolyl-3-(trifluoromethyl)-1H-pyrazol-5-yl)methyl)propanamide] | 49 nM |
| CC(C)(C)c1cc(CNC(=O)Nc2ccc(CCO)nc2)n(-c2cccc(F)c2)n1 [Example 152, 1-((3-tert-butyl-1-(3-fluorophenyl)-1H-pyrazol-5-yl)methyl)-3-(6-(2-hydroxyethyl)pyridin-3-yl)urea] | 85 nM |
| O=C(NCc1cc(C(F)(F)F)nn1-c1cccc(Cl)c1)Nc1ccc(N2CC[C@@H](O)C2)nc1 [Example 124, (R)-1-((1-(3-chlorophenyl)-3-(trifluoromethyl)-1H-pyrazol-5-yl)methyl)-3-(6-(3-hydroxypyrrolidin-1-yl)pyridin-3-yl)urea] | 64 nM |
| CC(C(=O)NCc1cc(C(F)(F)F)nn1-c1cccc(Cl)c1)c1ccc(CCO)nc1 (stereo not drawn) [Example 51, N-((1-(3-chlorophenyl)-3-(trifluoromethyl)-1H-pyrazol-5-yl)methyl)-2-(6-(2-hydroxyethyl)pyridin-3-yl)propanamide] | 8 nM |
| CC(C(=O)NCc1cc(C(C)(C)C)nn1-c1cccc(Cl)c1)c1cnc(C(=O)Nc2ccc(C(F)(F)F)cc2)nc1 (stereo not drawn) [Example 67, 5-(1-((3-tert-butyl-1-(3-chlorophenyl)-1H-pyrazol-5-yl)methylamino)-1-oxopropan-2-yl)-N-(4-(trifluoromethyl)phenyl)pyrimidine-2-carboxamide] | 13 nM |
| CC(C)(C)c1cc(CNC(=O)Nc2ccc(CO)cn2)n(-c2cccc(Cl)c2)n1 [Example 139, 1-((3-tert-butyl-1-(3-chlorophenyl)-1H-pyrazol-5-yl)methyl)-3-(5-(hydroxymethyl)pyridin-2-yl)urea] | 109 nM |
| O=C(Cc1cncnc1)NCc1cc(C(F)(F)F)nn1-c1cccc(Cl)c1 [Example 16, N-((1-(3-chlorophenyl)-3-(trifluoromethyl)-1H-pyrazol-5-yl)methyl)-2-(pyrimidin-5-yl)acetamide] | 77 nM |
| CC(C(=O)NCc1cc(C(F)(F)F)nn1-c1cccc(Cl)c1)c1cnc(C(=O)Nc2ccc(C(F)(F)F)cc2)nc1 (stereo not drawn) [Example 64, 5-(1-((1-(3-chlorophenyl)-3-(trifluoromethyl)-1H-pyrazol-5-yl)methylamino)-1-oxopropan-2-yl)-N-(4-(trifluoromethyl)phenyl)pyrimidine-2-carboxamide] | 61 nM |
| CC(C)(C)c1cc(CNC(=O)Nc2ccc(CO)nc2)n(-c2cccc(F)c2)n1 [Example 160, 1-((3-tert-butyl-1-(3-fluorophenyl)-1H-pyrazol-5-yl)methyl)-3-(6-(hydroxymethyl)pyridin-3-yl)urea] | 75 nM |
| CC(C)(C)c1cc(CNC(=O)Nc2ccc(N3CC(O)C3)nc2)n(-c2cccc(Cl)c2)n1 [Example 117, 1-((3-tert-butyl-1-(3-chlorophenyl)-1H-pyrazol-5-yl)methyl)-3-(6-(3-hydroxyazetidin-1-yl)pyridin-3-yl)urea] | 18 nM |
| CC(C(=O)NCc1cc(C(F)(F)F)nn1-c1cccc(Cl)c1)c1ccc(C(=O)Nc2ccc(F)cc2)nc1 (stereo not drawn) [Example 58, 5-(1-((1-(3-chlorophenyl)-3-(trifluoromethyl)-1H-pyrazol-5-yl)methylamino)-1-oxopropan-2-yl)-N-(4-fluorophenyl)picolinamide] | 5 nM |
| CN(CCO)c1ccc(NC(=O)NCc2cc(C(C)(C)C)nn2-c2cccc(Cl)c2)cn1 [Example 87, 1-((3-tert-butyl-1-(3-chlorophenyl)-1H-pyrazol-5-yl)methyl)-3-(6-((2-hydroxyethyl)(methyl)amino)pyridin-3-yl)urea] | 17 nM |
| CC(C(=O)NCc1cc(C(F)(F)F)nn1-c1cccc(Cl)c1)c1cnc(CO)c(F)c1 (stereo not drawn) [Example 142, N-((1-(3-chlorophenyl)-3-(trifluoromethyl)-1H-pyrazol-5-yl)methyl)-2-(5-fluoro-6-(hydroxymethyl)pyridin-3-yl)propanamide] | 1.5 nM |

Same assay, conditions: capsaicin (Cap); human being

| SMILES | mode of action at VR1/TRPV1 (AG, pAG, NE), Cap |
| --- | --- |
| O=C(Cc1ccncc1)NCc1cc(C(F)(F)F)nn1-c1cccc(Cl)c1 [Example 11, N-((1-(3-chlorophenyl)-3-(trifluoromethyl)-1H-pyrazol-5-yl)methyl)-2-(pyridin-4-yl)acetamide] | AG |
| O=C(NCc1cc(C(F)(F)F)nn1-c1cccc(Cl)c1)Nc1cccnc1 [Example 9, 1-((1-(3-chlorophenyl)-3-(trifluoromethyl)-1H-pyrazol-5-yl)methyl)-3-(pyridin-3-yl)urea] | AG |
| CC(C)(C)c1cc(CNC(=O)Cc2cccnc2)n(-c2cccc(Cl)c2)n1 [Example 6, N-((3-tert-butyl-1-(3-chlorophenyl)-1H-pyrazol-5-yl)methyl)-2-(pyridin-3-yl)acetamide] | AG |
| O=C(NCc1cc(C(F)(F)F)nn1-c1cccc(F)c1)Nc1ccc(C2CCOCC2)nc1 [Example 54, 1-((1-(3-fluorophenyl)-3-(trifluoromethyl)-1H-pyrazol-5-yl)methyl)-3-(6-(tetrahydro-2H-pyran-4-yl)pyridin-3-yl)urea] | NE |
